The values that follow come from patent US20140079636A1, “TARGETED THERAPEUTICS” (priority 2012, published 2014).

The nature of this data set: Tissue distribution of SDC-TRAPs in plasma and tumor (Example 14 extraction procedure). The note with it: in vivo; Tissue Distribution Data for SDC-TRAP-0076; Time 6 h; read-out: Tumor/Plasma Ratio.

Protocol: In order to test the ability SDC-TRAP molecules of the invention to be specifically targeted to tumor cells, the following experiment was performed.
Using the 10 mM stock solutions of the HDC compound and its Hsp90i and drug conjugate in DMSO, spiking solutions were prepared at 0.025, 0.05, 0.1, 0.5, 1, 5, 10, 50, 100, 250, and 500 μM in DMSO. 5 μL of each spiking solution was added to a 96-deep well plate. 50 μL of matrix (plasma thawed over ice or homogenized blank tumor).
Quality control standards were prepared from 5 μL of 0.1, 1, and 10 μM calibration standard spiking solution added in triplicate into 96-deep well plate and adding 50 μL of matrix (plasma or homogenized tumor).
To prepare test samples, test plasma was diluted as needed using blank plasma. Tumor samples were pulverized in liquid nitrogen, weighed, and homogenized in PBS at 5× volume to sample weight. 50 μL of unknown plasma or homogenized tumor sample was mixed with 5 μL of DMSO. The samples were extracted by precipitating calibration standards, QC standards, and unknown samples with 200 μL of internal standard solution. The samples were mixed by vortex at room temperature for approximately 1.5 minutes, then centrifuge at 2-8° C. 150 μL of supernatant was collected and 25 μL of water added. Samples were mixed and analyzed by LC-MS/MS.

Take `CCNC(=O)c1nnc(-c2cc(C(C)C)c(O)cc2O)n1-c1ccc(CN2CCC(C(=O)N3CCC(C(=O)OC4(CC)C(=O)OCc5c4cc4n(c5=O)Cc5c-4nc4ccc(O)cc4c5CC)CC3)CC2)cc1` (stereo not shown) [SDC-TRAP-0076, 4,11-diethyl-9-hydroxy-3,14-dioxo-3,4,12,14-tetrahydro-1H-pyrano[3′,4′:6,7]indolizino[1,2-b]quinolin-4-yl 1-(1-(4-(3-(2,4-dihydroxy-5-isopropylphenyl)-5-(ethylcarbamoyl)-4H-1,2,4-triazol-4-yl)benzyl)piperidine-4-carbonyl)piperidine-4-carboxylate]: the Kp was 7.25.
